Earlier results, collected in patent publication US6696575B2, “Biodegradable, electrically conducting polymer for tissue engineering applications” (Board of Regents, The University of Texas System, priority 2001, dated 2004).

Assays:
[1] = system: mouse; conditions: oral administration
[2] = system: rat; conditions: oral administration
[3] = system: rat sciatic nerve; conditions: in vivo

Row | Compound | one-half lethal dose (LD50) [2] [g/kg] | further results
1 | OCCCO [Propanediol, 1,3-propanediol] | – | one-half lethal dose (LD50) [1]: 5 g/kg
2 | CCO [ethanol] | 7 | –
3 | CCCCCC(=O)O [hexanoic acid] | 3 | –
4 | polypyrrole [PP] | – | tissue response on implantation [3]: provoked little adverse tissue response
